Experimental findings from US20070269830A1, “Process for the Identification of New Medical Targets” (priority 2003, published 2007) are described below.

Assay [1] deals with T1, E. coli expressed His-tagged human carbonyl reductase (CBR1) (Homo sapiens, UniProt P16152).
T1 construct: His; made in house; host or cells: E. coli
T1 sequence (P16152 1-277): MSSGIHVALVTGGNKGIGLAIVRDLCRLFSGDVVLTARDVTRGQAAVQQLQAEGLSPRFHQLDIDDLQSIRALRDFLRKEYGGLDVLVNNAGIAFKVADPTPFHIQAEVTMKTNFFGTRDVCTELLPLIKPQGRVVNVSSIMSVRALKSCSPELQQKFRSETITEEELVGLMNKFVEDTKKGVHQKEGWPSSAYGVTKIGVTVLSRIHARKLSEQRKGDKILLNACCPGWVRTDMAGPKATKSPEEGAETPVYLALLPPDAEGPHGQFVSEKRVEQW
Put plainly: carbonyl reductase activity assay (NADPH oxidation with menadione), recombinant enzyme. The settings on record: rate without benserazide 24.0. It counts as biochemical. The method, then:
(§1) The carbonyl reductase activity was evaluated spectrophotometrically according to the methods of Iwata et al. 1990. Eur. J. Biochem 193, p. 75-81.: Inazu N, Ruepp B., Wirth H., Wermuth B. 1992. BBA, 1116, p. 50-56 and Imamura et al. 1993. Arch. Biochem. Biophys. 300, p. 570-576. The oxidation rate of NADPH was recorded in the presence of the specific substrate menadione at 340 nm at room temperature on a Jenway 6505 UV/VIS Spectrophotometer.
(§2) The standard assay mixture consisted of 100 mM sodium phosphate buffer pH 7.0, 0.12 mM NADPH, 0.25 mM menadione. The reaction was started by adding 5-20 μg of E. coli expressed His-tagged human carbonyl reductase (CBR1) or alternatively by adding 10 μl of mouse live lysate extract (total protein concentration of 15 mg/ml). The total volume of the reaction mixture was 1 ml. The change of the absorbance was monitored at 340 nm.
(§3) The inhibition of carbonyl reductase was determined using the assay described in example 1. In addition to menadione as a substrate, the assay mixture was supplemented with 0, 0.5, 1, 2, 3, 6, or 7.5 mM benserazide. The inhibition experiment performed with mouse liver lysate as well as with recombinant CBR1 in protein supplemented probes.

Assay [2] relates to carbonyl reductase activity in mouse liver lysate. Put plainly: carbonyl reductase activity assay (NADPH oxidation with menadione), mouse liver lysate. It counts as biochemical. Particulars: rate without benserazide 16.3. The method, then:
as §1, §2, §3

For assay [3], the target named is T2, Carbonyl Reductase (CBR1) (Mus musculus, UniProt P48758).
T2 construct: from tissue; host or cells: mouse liver
T2 sequence (P48758 1-277): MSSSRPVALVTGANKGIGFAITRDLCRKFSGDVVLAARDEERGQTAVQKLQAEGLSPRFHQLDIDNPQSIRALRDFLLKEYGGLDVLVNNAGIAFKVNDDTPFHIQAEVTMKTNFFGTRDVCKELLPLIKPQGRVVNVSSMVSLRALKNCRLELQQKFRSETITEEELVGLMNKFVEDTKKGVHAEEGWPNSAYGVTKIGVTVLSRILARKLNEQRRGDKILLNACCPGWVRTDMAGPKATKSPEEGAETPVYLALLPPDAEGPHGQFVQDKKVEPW
Description: drug pulldown assay with immobilized benserazide, mouse liver cell lysate. It counts as binding. Particulars: benserazide on NHS-activated beads, mass spectrometry identification. The method, then:
The compound benserazide was immobilized on NHS-activated beads (Affi Gel 10, BioRad) via its NH2-group. 300 μl of the beads (both with the immobilized. benserazide and control beads) were washed in 10 ml washing buffer A (50 mM Tris, pH 7.5; 0.1 M NaCl, 0.15% lgepal, 1.5 mM MgCl2, 0.1 mM DTT) for 5-10 min at 4° C. and centrifugation for 5 min at 1000 rpm in a Heraeus Varifuge 3 OR).
Mouse liver cell lysate (60-100 mg total protein) and 125 μl 50× protease inhibitor tablets (Roche, Complete, EDTA free) where added to the beads and the suspension was incubated for 1 h at 4° C. (while rotating). The suspension was washed 1-3 × with 10 ml washing buffer B (50 mM Tris, pH 7.5; 0.1 M NaCl, 0.15% lgepal, 1.5 mM MgCl2, 0.1 mM DTT, 1× Protease inhibitor tablet (Complete, EDTA free, Roche)) by rotating the suspension for 5-10 min at 4° C. and centrifugation at 10,000 rpm at 4° C. The beads were transferred to a 1 ml MoBiTec column and connected to a 10 ml syringe. 10 ml washing buffer B were added.
Elution was performed by adding a 5-10 fold excess of the drug relative to the beads capacity. The drug was dissolved in 500 μl washing buffer B and incubated with beads on a rotating platform for 1 h at 4° C. and subsequently eluted in an eppendorf tube. 300 μl of washing buffer B were added to the beads and eluted immediately in the same eppendorf tube. […]

`NC(CO)C(=O)NNCc1ccc(O)c(O)c1O` (centres unmarked) [benserazide]: the “initial rate, carbonyl reductase” value in assay [1] (2 mM benserazide, 0.25 mM menadione, 0.12 mM NADPH) came out at 13.7 nmol/min; in assay [1] (6 mM benserazide), 3.5 nmol/min; in assay [1] (7.5 mM benserazide) it was 0.3 nmol/min. Further, the “initial rate, mouse liver lysate” value in assay [2] (0.5 mM benserazide) is 12.1 nmol/min; in assay [2] (1 mM benserazide), 8.6 nmol/min; in assay [2] (2 mM benserazide) it was 1.2 nmol/min; in assay [2] (3 mM benserazide) it was 1.3 nmol/min. Also, in assay [3], the “binding of carbonyl reductase (CBR1) to immobilized drug” value is “Identified as a Binding Partner”.
